Test results: patent US5262157A (priority 1988, dated 1993)
Where two headings read alike, the source gives them in different places.

Experiments:
in vivo [1] = conditions: rat; for Pentamidine concentration, Kidney: aerosol 0.4 mg/kg/day, 24 h after last dose
Method: (§1) Rats were treated in groups of four. […] Doses in all trials were calculated as above.

in vivo [2] = assay: in vivo
Method: The dose was calculated from the product of the concentration of the drug in the chamber, the minute volume of the rats (lung vol.×resp. rate), and the time of exposure. In all experiments exposure time was 15 min, male Sprague-Dawley rats with an average weight of 250 g were used, and the minute volume of the rats was assumed to be 70 ml. Rats were treated in groups of four. […] The aerosol was generated by oxygen flowing at 8 l/min through the nebulizer (Cadema Medical Products, part no. CA 61, Middletown, N.Y.). The drug solution was aerosolized at 0.3 ml/min with an expected mean particle diameter of 0.5-0.8 micron. […] This concentration multiplied by the minute volume and the exposure time gives a dose of 1.0 mg; since the rats weighed 0.25 kg, the dose was 4.0 mg/kg. Doses in all trials were calculated as above.
Four rats were studied at each time.

in vivo [3] = conditions: rat; for concentration at 24 h: inhaled or intranasal, 3.2 mg/kg/day, aerosol 3.2 mg/kg daily × 4, 24 h after last dose
Method: as §1
Treatments were well-tolerated. […] There were rare foci of mild thickening of interalveolar septae containing a few histiocytes and some congestion. […] These were also seen in sections from control animals and are common findings in normal rat lung.

[4] = human, in vivo
Description: Patients were 18 years old or older and outpatients judged free of any imminently-critical medical problems. All patents received a complete physical examination and medical history evaluation. Pretreatment laboratory studies included a CBC with differential and platelet count, a biochemical screening profile, chest X-ray, and pulmonary function tests including spirometry and measurement of diffusion capacity.
Each patient was issued a device at the start of the study. These devices were labeled with the patient's code number. The devices are simple to operate and their sterility was ensured as components were replaced after a single use. New sterile plastic reservoirs for the drug solution and new sterile suction rods were used for each treatment.
(§2) Each aerosol treatment was given over 15-30 minutes. […] 1.0, 1.5,or 2.0 ml aliquots were added to the nebulizer reservoir for doses of 30, 45, or 60 mg, respectively. Sterile pyrogen-free water was added to yield a total volume of 3.0 ml. Treatments were administered by a physician or registered nurse.
Signs of systemic toxicity were monitored. To detect adverse effects on the lungs, pulmonary function was monitored.
All problems were judged a concomitant illness or adverse reaction based on the following definitions. […]
Patients were interviewed before and after each treatment and any adverse reactions, complaints, or comments recorded. […]

Pneumocystis carinii [5] = assay: Clinical effectiveness of aerosol pentamidine in prophylaxis of PCP; format: in vivo, human
Method: as §2
Prophylaxis was judged effective for an individual patient if that patient had no proven or probable episodes of PCP. Prophylaxis was considered a proven failure if a patinet developed pneumonia and P. carinii was found in stained preparations obtained by bronchoscopy or lung biopsy. Prophylaxis was considered a probable failure if a patient develops pneumonia and responded to empiric treatment with SXT […]. If a patient died and no autopsy was perfomed, the case was considered not evaluable unless there was evidence that the patient had good antemortem pulmonary function and died from other causes. If the latter conditions were met, the case was considered a probable success.
The treatment period was three months; patients were examined before and after each treatment and underwent pulmonary function testing and biochemical and hematologic tests before treatment no. 1 and after treatment nos. 1, 2, 4, and 6.
A total of 650 treatments were given. Treatment periods ranged from 1-12 months. […] They had no reactions after their first four doses and was receiving several other medications at the time the rash developed. […] Five proven episodes of PCP have occurred among patients who received biweekly doses of 30 mg; six proven episodes of PCP have occurred among patients who were treated with this dose, but who skipped one or more scheduled doses.
A total of 73 patients were enrolled over the past two months with approximately equal numbers at each dose level. […] Patients who were receiving the low dose have since been randomized to receive either 45 or 60 mg. To date two patients receiving 45 mg have had proven episodes of PCP.

[6] = tested on: African trypanosomiasis (sleeping sickness); conditions: cited from earlier work
Pneumocystis carinii [7] = conditions: animal model of PCP; cited from earlier work
[8] = cited from earlier work
[9] = Pentamidine tissue concentrations in humans after intravenous infusions; conditions: human, IV 4.0 mg/kg/day
[10] = rat, in vivo, inhaled or intranasal, 4 mg/kg
[11] = aerosol 45 mg, weekly for four weeks then biweekly

Q: With `N=C(N)c1ccc(OCCCCCOc2ccc(C(=N)N)cc2)cc1` [pentamidine, Pentamidine isethionate] as the compound, how does the “Pentamidine concentration, Kidney” value (in vivo [1]; 1 dose) read?
A: The value was “NMA”.

Q: What about the “Pentamidine concentration, Kidney” value (in vivo [1]; 2 doses) of the same compound?
A: The value was “NMA”.

Q: And the “Pentamidine concentration, Kidney” value (in vivo [1]; 4 doses)?
A: Its value is “NMA”.

Q: What about the concentration at 24 h (in vivo [1]; in vivo, inhaled or intranasal, 0.4 mg/kg/day, levels in the lung) of the same compound?
A: Its concentration at 24 h is 60500 ng/g.

Q: And the “amount retained per animal” value (in vivo [2]; rat, in vivo, 4 mg/kg)?
A: Its value is 60 µg.

Q: And the “fraction of inhaled drug retained” value (in vivo [2]; rat, in vivo, 4 mg/kg)?
A: Its value is “about 6.0%”.

Q: What about the retained dose (in vivo [2]; rat, in vivo, 4 mg/kg) of the same compound?
A: The retained dose was 0.24 mg/kg.

Q: And the “amount of drug retained in the lungs” value (in vivo [2]; [10])?
A: Its value is “about 40 mcg/g”.

Q: What about the half-life (in vivo [2]; [10]) of the same compound?
A: The half-life was 36 days.

Q: What about the “retention in the lungs” value (in vivo [2]; single aerosol dose) of the same compound?
A: Its value is “retained in the lungs for many weeks”.

Q: What about the concentration at 24 h (in vivo [3]; kidney) of the same compound?
A: The concentration at 24 h was 7200 ng/g.

Q: What about the concentration at 24 h (in vivo [3]; lung) of the same compound?
A: The concentration at 24 h was 291000 ng/g.

Q: And the “lung weight and appearance” value (in vivo [3]; aerosol 3.2 mg/kg daily × 4)?
A: Its value is “normal in weight and appearance”.

Q: And the “toxicity of high lung concentrations” value (in vivo [3]; aerosol 3.2 mg/kg daily × 4)?
A: Its value is “little or no toxicity”.

Q: And the tolerability of treatments (in vivo [3]; aerosol 3.2 mg/kg daily × 4 (total dose 12.8 mg/kg))?
A: Its tolerability of treatments is “well-tolerated”.

Q: And the histopathology of lungs (in vivo [3]; aerosol 3.2 mg/kg daily × 4, stained sections)?
A: Its histopathology of lungs is “no histopathologic changes were found”.

Q: What about the tolerability of treatments [4] of the same compound?
A: Its tolerability of treatments is “well tolerated”.

Q: And the “proven episodes of PCP” value (Pneumocystis carinii [5]; aerosol 30 mg biweekly, 60 patients, 1-12 months)?
A: Its value is “Five”.

Q: And the “proven episodes of PCP in patients who skipped one or more scheduled doses” value (Pneumocystis carinii [5]; aerosol 30 mg biweekly, skipped doses)?
A: Its value is “six”.

Q: And the “proven or possible episodes of PCP” value (Pneumocystis carinii [5]; aerosol 30 mg biweekly, twelve patients, three months)?
A: Its value is “no patient had a proven or possible episode of PCP”.

Q: What about the protection (Pneumocystis carinii [5]; aerosol 30 mg dose) of the same compound?
A: Its protection is “not reliably protective”.

Q: And the “patients with proven episodes of PCP” value (Pneumocystis carinii [5]; [11])?
A: Its value is “two”.

Q: And the “severity of PCP episodes” value (Pneumocystis carinii [5]; [11])?
A: The value was “very mild episodes”.

Q: And the “mild cases of PCP” value (Pneumocystis carinii [5]; all phases, 960 doses, 116 patients)?
A: The value was “seven”.

Q: What about the protection (Pneumocystis carinii [5]; all phases, preliminary evidence) of the same compound?
A: Its protection is “at least partially protective”.

Q: What about the “resistance to infection after a single IM dose” value ([6]; human volunteers, weekly bites from infected tse-tse flies) of the same compound?
A: Its value is “resisted infection for one year or more”.

Q: And the “chemoprophylaxis of African trypanosomiasis” value ([6]; human)?
A: Its value is “effective in the chemoprophylaxis of African trypanosomiasis”.

Q: And the “elimination of infection in endemic areas” value ([6]; twice-yearly IV or IM doses, Africa)?
A: The value was “eliminated the infection in endemic areas”.

Q: What about the “prophylaxis of PCP with IV or IM pentamidine” value (Pneumocystis carinii [7]) of the same compound?
A: Its value is “unsuccessful in the animal model of PCP”.

Q: What about the elimination from blood ([8]; IV or IM) of the same compound?
A: The elimination from blood was “eliminated rapidly from blood”.

Q: And the elimination from tissues ([8]; in vivo)?
A: The elimination from tissues was “eliminated slowly from them”.

Q: What about the “Pentamidine concentration, Adrenal” value ([9]; 1 dose) of the same compound?
A: The value was 19 µg/g.

Q: What about the “Pentamidine concentration, Kidney” value ([9]; 1 dose) of the same compound?
A: Its value is 8.5 µg/g.

Q: And the “Pentamidine concentration, Liver” value ([9]; 1 dose)?
A: The value was 35 µg/g.

Q: And the “Pentamidine concentration, Spleen” value ([9]; 1 dose)?
A: The value was 40 µg/g.

Q: And the “Pentamidine concentration, Kidney” value ([9]; 2 doses)?
A: Its value is 13 µg/g.

Q: And the “Pentamidine concentration, Liver” value ([9]; 2 doses)?
A: Its value is 23 µg/g.

Q: What about the “Pentamidine concentration, Spleen” value ([9]; 2 doses) of the same compound?
A: Its value is 40 µg/g.

Q: What about the “Pentamidine concentration, Kidney” value ([9]; 5 doses) of the same compound?
A: Its value is 62 µg/g.

Q: What about the “Pentamidine concentration, Liver” value ([9]; 5 doses) of the same compound?
A: The value was 112 µg/g.

Q: What about the “Pentamidine concentration, Lung” value ([9]; 5 doses) of the same compound?
A: Its value is 42 µg/g.

Q: And the “Pentamidine concentration, Spleen” value ([9]; 5 doses)?
A: Its value is 28 µg/g.

Q: And the “Pentamidine concentration, Adrenal” value ([9]; 15 doses)?
A: Its value is 92 µg/g.

Q: And the “Pentamidine concentration, Kidney” value ([9]; 15 doses)?
A: Its value is 123 µg/g.

Q: And the “Pentamidine concentration, Liver” value ([9]; 15 doses)?
A: Its value is 300 µg/g.

Q: What about the “Pentamidine concentration, Lung” value ([9]; 15 doses) of the same compound?
A: Its value is 56 µg/g.

Q: And the “Pentamidine concentration, Spleen” value ([9]; 15 doses)?
A: The value was 368 µg/g.
